Values joined by “and” are separate entries in the source; they are usually repeats but may differ in a detail not shown here. Identical values can stand only once. “Also recorded” adds a separate entry of the source. One block for each compound: values may come before it.
What was measured:
[1] = molecular target: T1, human full-length Nurr1 homodimer (NurRE) (Homo sapiens, UniProt P43354); assay: Full-length Nurr1 reporter gene assay (NurRE); assay type: cell-based; details: full-length human Nurr1 homodimer, HEK293T
T1 construct: The full-length human nuclear receptor Nurr1 (pcDNA3.1-hNurr1-NE; Addgene plasmid #102363); host or cells: HEK293T
From the text: (§1) Activation of full-length human Nurr1 was studied in transiently transfected HEK293T cells using the reporter plasmids pFR-Luc-NBRE[14], pFR-Luc-POMC[14] or pFR-Luc-DR5[14] each containing one copy of the respective human Nurr1 response element NBRE Nl3, NurRE, or DR5. The full-length human nuclear receptor Nurr1 (pcDNA3.1-hNurr1-NE; Addgene plasmid #102363) and, for DR5, RXRα (pSG5-hRXR)[57] were overexpressed. pRL-SV40 (Promega) was used for the normalization of transfection efficacy and to observe test compound toxicity. […] After 24 h, the medium was changed to Opti-MEM without supplements, and cells were transiently transfected using Lipofectamine LTX reagent (Invitrogen) according to the manufacturer’s protocol. Five hours after transfection, cells were incubated with the test compounds in Opti-MEM supplemented with penicillin (100 U/mL), streptomycin (100 μg/mL) and 0.1% DMSO for 16 h before luciferase activity was measured using the Dual-Glo Luciferase Assay System (Promega) according to the manufacturer’s protocol on a Tecan Spark luminometer (Tecan Deutschland GmbH). Firefly luminescence was divided by Renilla luminescence and multiplied by 1000 resulting in relative light units (RLU) to normalize for transfection efficiency and cell growth. Fold activation was obtained by dividing the mean RLU of the test compound by the mean RLU of the untreated control. All samples were tested in at least three biologically independent experiments in duplicates. For dose-response curve fitting and calculation of EC50 values, the equation “[Agonist] vs. response -- Variable slope (four parameters)” was used in GraphPad Prism (version 7.00, GraphPad Software).

[2] = molecular target: T2, human full-length Nurr1 monomer (NBRE) (Homo sapiens, UniProt P43354); assay: Full-length Nurr1 reporter gene assay (NBRE); assay type: cell-based; details: full-length human Nurr1 monomer, HEK293T
T2 construct: The full-length human nuclear receptor Nurr1 (pcDNA3.1-hNurr1-NE; Addgene plasmid #102363); host or cells: HEK293T
From the text: as §1

Nur77 = molecular target: T3, Nur77 (Homo sapiens, UniProt P22736); assay: Gal4-Nur77 hybrid reporter gene assay; assay type: cell-based; details: HEK293T
T3 construct: chimeric receptors composed of the Gal4-DBD and the hinge region and LBD; expressed in transfected cells; host or cells: HEK293T
Experimental: Nurr1 modulation was determined in a Gal4 hybrid reporter gene assay in HEK293T cells (German Collection of Microorganisms and Cell Culture GmbH, DSMZ) using pFR-Luc (Stratagene, La Jolla, CA, USA; reporter), pRL-SV40 (Promega, Madison, WI, USA; internal control) and pFA-CMV-hNurr1-LBD[14], coding for the hinge region and ligand binding domain of the canonical isoform of human Nurr1. […] After 24 h, the medium was changed to Opti-MEM without supplements, and cells were transiently transfected using Lipofectamine LTX reagent (Invitrogen, Carlsbad, CA, USA) according to the manufacturer’s protocol. Five hours after transfection, cells were incubated with the test compounds in Opti-MEM supplemented with penicillin (100 U/mL), streptomycin (100 μg/mL), and 0.1% DMSO for 16 h before luciferase activity was measured using the Dual-Glo Luciferase Assay System (Promega) according to the manufacturer’s protocol on a Tecan Spark luminometer (Tecan Deutschland GmbH, Crailsheim, Germany). Firefly luminescence was divided by Renilla luminescence and multiplied by 1000 resulting in relative light units (RLU) to normalize for transfection efficiency and cell growth. Fold activation was obtained by dividing the mean RLU of the test compound by the mean RLU of the untreated control. All samples were tested in at least three biologically independent experiments in duplicates. For dose-response curve fitting and calculation of EC50 values, the equation “[Agonist] vs. response -- Variable slope (four parameters)” was used in GraphPad Prism (version 7.00, GraphPad Software, La Jolla, CA, USA). Selectivity profiling was performed with identical procedures using pFA-CMV-Nur77-LBD[14], pFA-CMV-NOR-1-LBD[14], pFA-CMV-THRα-LBD[51], pFA-CMV-RARα-LBD[52], pFA-CMV-PPARα-LBD[53], pFA-CMV-PPARγ-LBD[53], pFA-CMV-PPARδ-LBD[53], pFA-CMV-LXRα-LBD[54], pFA-CMV-FXR-LBD[55] and pFA-CMV-hRXRα-LBD[56].

[3] = tested on: Nurr1-regulated TH, VMAT2 and SOD2 mRNA in astrocytes (T98G); assay: Nurr1-regulated gene expression in T98G astrocytes (qPCR); assay type: cell-based, human; details: vs DMSO control
[4] = molecular target: T4, human Nurr1 (hinge region and ligand binding domain) (Homo sapiens, UniProt P43354); assay: Gal4-Nurr1 hybrid reporter gene assay; assay type: cell-based
T4 construct: expressed in transfected cells; host or cells: HEK293T

Nurr1 LBD = molecular target: T5, Nurr1 LBD (Homo sapiens, UniProt P43354); assay: Isothermal titration calorimetry (ITC); assay type: binding; details: 25 °C
T5 construct: Nurr1 LBD protein (5–30 µM, expressed as described previously[21]); made in house
Experimental: ITC experiments were conducted on an Affinity ITC instrument (TA Instruments, New Castle, DE) at 25 °C with a stirring rate of 75 rpm. Nurr1 LBD protein (5–30 µM, expressed as described previously[21]) in buffer (20 mM Tris pH 7.5, 100 mM NaCl, 5% glycerol) containing 1–4% DMSO was titrated with the test compounds (30–150 μM in the same buffer containing 1-4% DMSO) in 26 injections (1 × 1 µL, 25 × 3-4 μL) with an injection interval of 120-150 s. As control experiments, the test compounds were titrated to the buffer, and the buffer was titrated to the Nurr1 LBD protein under otherwise identical conditions. Results were analyzed using NanoAnalyze software (version 3.11.0, TA Instruments, New Castle, DE) with independent binding models.

HEK293T cells = assay: WST-8 cytotoxicity assay, HEK293T; assay type: cell-based, human; details: for toxicity (WST-8): HEK293T cells, 24 h
Experimental: Each sample was prepared in four biologically independent repeats. After incubation for 24 h, the medium was refreshed and 10% water-soluble tetrazolinum salt (Cell Counting Kit-8, MedChemExpress) was added to assess metabolic activity. After 4 h, absorbance was measured at 450 nm using a Tecan Spark Cyto instrument (Tecan).

T5 sequence (P43354 360-595 limits assumed): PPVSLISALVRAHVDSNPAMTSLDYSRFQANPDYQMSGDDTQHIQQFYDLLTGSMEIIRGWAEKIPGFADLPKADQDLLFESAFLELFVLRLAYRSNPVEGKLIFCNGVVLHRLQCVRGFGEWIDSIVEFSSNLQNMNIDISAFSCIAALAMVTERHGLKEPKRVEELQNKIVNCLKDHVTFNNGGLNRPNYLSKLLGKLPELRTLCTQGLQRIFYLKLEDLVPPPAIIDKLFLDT
T4 sequence (P43354 360-595 limits assumed): as above
T2 sequence (P43354 whole entry): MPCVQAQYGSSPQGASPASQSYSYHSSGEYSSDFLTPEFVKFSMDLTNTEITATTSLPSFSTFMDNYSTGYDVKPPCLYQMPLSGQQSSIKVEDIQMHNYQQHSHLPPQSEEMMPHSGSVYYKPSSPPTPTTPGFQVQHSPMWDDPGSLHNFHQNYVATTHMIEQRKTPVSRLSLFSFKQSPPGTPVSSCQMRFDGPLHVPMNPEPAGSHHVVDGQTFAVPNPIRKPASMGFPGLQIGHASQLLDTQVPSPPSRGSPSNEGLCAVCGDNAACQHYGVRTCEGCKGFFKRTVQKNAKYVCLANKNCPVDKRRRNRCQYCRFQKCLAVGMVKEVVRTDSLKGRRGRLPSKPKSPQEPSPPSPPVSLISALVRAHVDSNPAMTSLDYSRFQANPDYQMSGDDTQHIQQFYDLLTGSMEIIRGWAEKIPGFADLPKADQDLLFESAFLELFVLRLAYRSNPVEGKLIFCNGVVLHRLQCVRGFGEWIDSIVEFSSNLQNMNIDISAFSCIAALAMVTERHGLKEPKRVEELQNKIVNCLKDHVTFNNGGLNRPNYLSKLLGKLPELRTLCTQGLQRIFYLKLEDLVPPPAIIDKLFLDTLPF
T1 sequence (P43354 whole entry): as above
T3 sequence (P22736 360-595 limits assumed): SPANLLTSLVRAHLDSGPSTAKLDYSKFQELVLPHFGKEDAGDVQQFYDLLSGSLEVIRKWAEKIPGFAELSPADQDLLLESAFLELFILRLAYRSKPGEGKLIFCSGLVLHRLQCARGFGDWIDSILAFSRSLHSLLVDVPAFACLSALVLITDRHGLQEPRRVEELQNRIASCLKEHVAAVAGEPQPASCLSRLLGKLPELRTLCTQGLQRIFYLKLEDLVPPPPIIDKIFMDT

EC50(NurRE) [1]: no activation (10 µM) | EC50(NBRE) [2]: no activation (10 µM) | EC50(Nur77) (Nur77): no activation (10 µM) | fold less active than 36 as Nurr1 modulator ([4]; no agonism at 10 µM vs EC50 of 36): at least 100 fold | Kd (Nurr1 LBD) (Nurr1 LBD): no binding^b
Compound: Cc1nc2c(Cl)cccn2c1NC(=O)c1ccc(-c2ccccc2)[nH]1 [Compound 29, N-(8-Chloro-2-methylimidazo[1,2-a]pyridin-3-yl)-5-phenyl-1H-pyrrole-2-carboxamide]
SOD2 mRNA induction (mean) ([3]; 10 µM): 1.131 fold | TH mRNA induction (mean) ([3]; 10 µM): 1.042 fold | VMAT2 mRNA induction (mean) ([3]; 10 µM): 0.9124 fold | highest non-toxic concentration ([4]; Gal4-Nurr1 hybrid reporter gene assay, HEK293T): inactive (10 µM^b) | EC50(Nurr1) ([4]; Gal4-Nurr1 hybrid reporter, HEK293T, mean ± SD, n ≥ 3): inactive (10 µM^b); also recorded: no activation (10 µM) | toxicity (WST-8) (HEK293T cells): inactive (10 µM)

EC50 [1]: 0.094 ± 0.003 µM | EC50(NBRE) [2]: no activation (1 µM) | EC50 (Nur77): 0.33 ± 0.04 µM | EC50 ([4]; Gal4-Nurr1 hybrid reporter, HEK293T, mean ± SD, n ≥ 3, read-out: EC50(Nurr1)): 0.09 ± 0.005 µM | Kd (Nurr1 LBD): 0.17 µM
Compound: Cc1nc2c(Cl)cccn2c1NC(=O)c1ccc(-c2ccc(N(C)C)cc2)o1 [Compound 36, N-(8-Chloro-2-methylimidazo[1,2-a]pyridin-3-yl)-5-(4-(dimethylamino)phenyl)furan-2-carboxamide]
SOD2 mRNA induction (mean) ([3]; 0.1 µM): 1.308 fold | TH mRNA induction (mean) ([3]; 0.1 µM): 1.414 fold | VMAT2 mRNA induction (mean) ([3]; 0.1 µM): 1.925 fold | SOD2 mRNA induction (mean) ([3]; 0.3 µM): 1.894 fold | TH mRNA induction (mean) ([3]; 0.3 µM): 1.603 fold | VMAT2 mRNA induction (mean) ([3]; 0.3 µM): 1.791 fold | toxicity (WST-8) (HEK293T cells): no toxic effect; also recorded: non-toxic; also recorded: inactive (10 µM) | rel. absorbance (450 nm) (HEK293T cells; HEK293T, 10 µM, WST-8, vs DMSO ctrl): 85% and 95% and 80%

Reference: PMC11217349, “Development of Nurr1 agonists from amodiaquine by scaffold hopping and fragment growing” (Communications Chemistry, 2024)
